Laboratory results published in the supplement of paper PMC10627819.

Experiments:
[1] = system: S. aureus Newman; experiment: fitness (endpoint OD595 vs no drug) (fraction); higher = more growth
Method in brief: (§1)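 Fitness was measured as bacterial growth in 384-well plates inoculated at OD595 0.01 (30 µl, or 55 µl for S. pneumoniae). Media were TSB, LB Lennox or CY, at 37 °C. OD595 was read every 30 min for 14 h and background-subtracted against the first reading. Fitness is OD595 at the transition into stationary phase divided by the robust mean of no-drug control wells, capped at 1.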

[2] = system: S. pneumoniae D39V; experiment: as above
Method in brief: as §1

[3] = system: B. subtilis 168; experiment: as above
Method in brief: as §1

[4] = system: S. aureus Newman; experiment: Bliss interaction score (quartile over a dose matrix) (fitness difference); higher = more antagonism (negative = synergy)
Method in brief: (§2)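 Each OD595 reading at entry into stationary phase was scaled to the robust mean of the untreated wells on its plate, with a ceiling of 1. These ratios define fitness, and single-drug fitness was inferred from combinations. The Bliss score compares observed fitness with the product-based expectation and is reported as quartiles across all replicate types, technical, biological and donor/recipient.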

[5] = system: S. pneumoniae D39V; experiment: as above
Method in brief: as §2

[6] = system: B. subtilis 168; experiment: as above
Method in brief: as §2

[7] = system: S. aureus DSM 20231; experiment: as above
Method in brief: as §2
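Wherever Bliss interaction score (quartile over a dose matrix) is given: first quartile when negative (synergy) and third quartile when positive (antagonism).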
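Wherever fitness (endpoint OD595 vs no drug) is given: OD595 on entry to stationary phase over no-drug wells; at most 1.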

CC1=C(C(=O)O)N2C(=O)[C@@H](NC(=O)[C@H](N)c3ccccc3)[C@H]2SC1 [Cephalexin] + CN(C)c1cc(NC(=O)CNC(C)(C)C)c(O)c2c1C[C@H]1C[C@H]3[C@H](N(C)C)C(O)=C(C(N)=O)C(=O)[C@@]3(O)C(O)=C1C2=O [Tigecycline]
fitness
Conditions | first compound 0.125 µg/mL | first compound 0.25 µg/mL | first compound 0.5 µg/mL | first compound 1 µg/mL | first compound 2 µg/mL | first compound 4 µg/mL
[1], partner 0.039 µg/mL | – | 0.974 | 0.992 | ≥ 1 | – | –
[1], partner 0.078 µg/mL | – | 0.998 | ≥ 1 | ≥ 1 | – | –
[1], partner 0.156 µg/mL | – | 0.97 | 0.994 | ≥ 1 | – | –
[2], partner 0.65 µg/mL | – | – | – | 0.514 | 0.0102 | 0.0229
[2], partner 1.3 µg/mL | – | – | – | 0.616 | 0.0542 | 0.0691
[2], partner 2.6 µg/mL | – | – | – | 0.616 | 0.0292 | 0.0457
[3], partner 0.039 µg/mL | 0.958 | 0.946 | 0.942 | – | – | –
[3], partner 0.078 µg/mL | 0.903 | 0.902 | 0.942 | – | – | –
[3], partner 0.156 µg/mL | 0.951 | 0.892 | 0.943 | – | – | –

fitness, one replicate
Conditions | first compound 0.125 µg/mL | first compound 0.25 µg/mL | first compound 0.5 µg/mL | first compound 1 µg/mL
[2], partner 0.65 µg/mL | 0.933 | 0.959 | ≥ 1 | –
[2], partner 1.3 µg/mL | 0.964 | 0.974 | ≥ 1 | –
[2], partner 2.6 µg/mL | 0.888 | 0.915 | 0.978 | –
[3], partner 0.125 µg/mL | – | 0.94 | ≥ 1 | 0.995
[3], partner 0.25 µg/mL | – | 0.952 | 0.976 | 0.975
[3], partner 0.5 µg/mL | – | 0.958 | ≥ 1 | 0.916

Conditions | Bliss interaction score
[4] | 0.0193
[5] | -0.0787
[6] | -0.0606
[7] | 0.0805

CC1=C(C(=O)O)N2C(=O)[C@@H](NC(=O)[C@H](N)c3ccccc3)[C@H]2SC1 [Cephalexin] + CN(N=O)C(=O)N[C@@H](C=O)[C@@H](O)[C@H](O)[C@H](O)CO [Streptozotocin]
fitness, [1]
Conditions | first compound 0.25 µg/mL | first compound 0.5 µg/mL | first compound 1 µg/mL
partner 0.15 µg/mL | 0.874 | 0.863 | 0.876
partner 0.3 µg/mL | 0.728 | 0.735 | 0.786
partner 0.6 µg/mL | 0.6 | 0.591 | 0.696

fitness, one replicate
Conditions | first compound 0.125 µg/mL | first compound 0.25 µg/mL | first compound 0.5 µg/mL | first compound 1 µg/mL | first compound 2 µg/mL | first compound 4 µg/mL
[2], partner 1.2 µg/mL | 0.878 | 0.928 | 0.953 | 0.218 | 0.0084 | 0.0421
[2], partner 2.4 µg/mL | 0.922 | 0.965 | 0.968 | 0.313 | 0.0518 | 0.0145
[2], partner 4.8 µg/mL | 0.909 | 0.901 | 0.922 | 0.0033 | 0 | 0
[3], partner 0.15 µg/mL | 0.918 | 0.932 | ≥ 1 | – | – | –
[3], partner 0.3 µg/mL | ≥ 1 | ≥ 1 | ≥ 1 | – | – | –
[3], partner 0.6 µg/mL | 0.952 | 0.956 | 0.967 | – | – | –

Conditions | Bliss interaction score
[4] | 0.0503
[5] | -0.0789
[6] | 0.094
[7] | -0.0755

CC1=C(C(=O)O)N2C(=O)[C@@H](NC(=O)[C@H](N)c3ccccc3)[C@H]2SC1 [Cephalexin] + CN[C@@H]1[C@H](O)[C@H](NC)[C@H]2O[C@@]3(O)C(=O)C[C@@H](C)O[C@H]3O[C@@H]2[C@H]1O [Spectinomycin]
fitness
Conditions | first compound 0.125 µg/mL | first compound 0.25 µg/mL | first compound 0.5 µg/mL | first compound 1 µg/mL
[1], partner 4 µg/mL | – | 0.904 | 0.951 | 0.951
[1], partner 8 µg/mL | – | 0.982 | ≥ 1 | ≥ 1
[1], partner 16 µg/mL | – | 0.949 | 0.957 | ≥ 1
[3], partner 2 µg/mL | ≥ 1 | 0.933 | 0.978 | –
[3], partner 4 µg/mL | 0.981 | 0.978 | ≥ 1 | –
[3], partner 8 µg/mL | 0.905 | 0.928 | 0.884 | –

fitness, one replicate
Conditions | first compound 0.125 µg/mL | first compound 0.25 µg/mL | first compound 0.5 µg/mL | first compound 1 µg/mL | first compound 2 µg/mL | first compound 4 µg/mL
[1], partner 16 µg/mL | – | – | – | – | 0.969 | –
[1], partner 32 µg/mL | – | – | 0.681 | 0.713 | 0.651 | –
[1], partner 64 µg/mL | – | – | 0.127 | 0.071 | 0.1 | –
[2], partner 4 µg/mL | 0.874 | 0.91 | 0.993 | 0.474 | 0.0025 | 0
[2], partner 8 µg/mL | 0.892 | 0.884 | 0.908 | 0.587 | 0.0549 | 0.0577
[2], partner 16 µg/mL | 0.875 | 0.82 | 0.859 | – | – | –

Conditions | Bliss interaction score
[4] | 0.0839
[5] | 0.0578
[6] | 0.0659
[7] | 0.0503

CC1=C(C(=O)O)N2C(=O)[C@@H](NC(=O)[C@H](N)c3ccccc3)[C@H]2SC1 [Cephalexin] + CN[C@@H]1[C@H](O[C@H]2[C@H](O[C@H]3[C@H](O)[C@@H](O)[C@H](N=C(N)N)[C@@H](O)[C@@H]3N=C(N)N)O[C@@H](C)[C@]2(O)C=O)O[C@@H](CO)[C@H](O)[C@H]1O [Streptomycin]
fitness
Conditions | first compound 0.125 µg/mL | first compound 0.25 µg/mL | first compound 0.5 µg/mL | first compound 1 µg/mL | first compound 2 µg/mL | first compound 4 µg/mL
[1], partner 1 µg/mL | – | 0.944 | 0.967 | 0.987 | – | –
[1], partner 2 µg/mL | – | 0.976 | ≥ 1 | ≥ 1 | – | –
[2], partner 4 µg/mL | – | – | – | 0.454 | 0.0189 | 0.0459
[2], partner 8 µg/mL | – | – | – | 0.408 | 0.0381 | 0.0337
[3], partner 2 µg/mL | 0.94 | 0.923 | 0.932 | – | – | –
[3], partner 8 µg/mL | 0.031 | 0.0416 | 0.0533 | – | – | –

fitness, [2], one replicate
Conditions | first compound 0.125 µg/mL | first compound 0.25 µg/mL | first compound 0.5 µg/mL | first compound 1 µg/mL | first compound 2 µg/mL | first compound 4 µg/mL
partner 2 µg/mL | 0.86 | 0.913 | 0.953 | 0.386 | 0.0034 | 0.0206
partner 4 µg/mL | 0.901 | 0.91 | 0.911 | – | – | –
partner 8 µg/mL | 0.961 | 0.898 | 0.896 | – | – | –
partner 16 µg/mL | – | – | – | 0.198 | 0.0581 | 0.0194

Conditions | Bliss interaction score
[4] | 0.0561
[5] | -0.153
[6] | 0.0604
[7] | -0.157
